From the supplement of paper PMC7017272
± gives the standard deviation of the averaged measurements.

Tests used:
UT-SCC-73 [1] = test: relative IC50 (midpoint of the fitted curve; maximal inhibition may be below 50%); higher = less potent; settings: culture condition: embedded in Matrigel; treatment time: 3 days
Outline: (§1)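 Viability of HPV-negative HNSCC cell lines was measured by CellTiter-Glo 2.0 luminescence. Cells were seeded at 500 cells/well in 384-well plates on plastic, on Matrigel- or Myogel-coated wells (500 µg/mL), or embedded in Matrigel or Myogel plus rat collagen I, then given compounds at five 10-fold concentrations for 3 days, with signals normalised to vehicle (0.1% DMSO) and cell-killing control wells. Fitting of percent-inhibition dose–response curves in the FIMM pipeline yielded IC50, maximal inhibition and drug sensitivity score.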

UT-SCC-14 [2] = test: as above; settings: treatment time: 3 days
Outline: as §1

UT-SCC-24B [3] = test: as above; settings: treatment time: 3 days
Outline: as §1

UT-SCC-106A [4] = test: as above; settings: treatment time: 3 days
Outline: as §1

UT-SCC-44 [5] = test: as above; settings: treatment time: 3 days
Outline: as §1

UT-SCC-73 [6] = test: maximal % inhibition of viability relative to DMSO; higher = stronger effect; settings: treatment time: 3 days
Procedure: (§2)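 HNSCC cell lines (500 cells/well, 384-well) were cultured on plastic, on top of (2D) or embedded (3D) in Matrigel or human leiomyoma matrix Myogel (500 ug/mL; Myogel 3D mixed with rat collagen I). Cells were treated for 3 days with 5 ten-fold concentrations of each drug, and viability was read by CellTiter-Glo. Viability was normalised to DMSO and benzethonium chloride controls and fitted with the FIMM DSRT pipeline to give IC50 (nM), maximal % inhibition and DSS. Suffixes _1/_2/_3 are replicates. Only inhibition-mode (IC50) fits are kept.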

UT-SCC-40 = test: as above; settings: treatment time: 3 days
Procedure: as §2

UT-SCC-8 = test: as above; settings: treatment time: 3 days
Procedure: as §2

UT-SCC-28 = test: as above; settings: treatment time: 3 days
Procedure: as §2

UT-SCC-42A = test: as above; settings: treatment time: 3 days
Procedure: as §2

UT-SCC-14 [7] = test: as above; settings: treatment time: 3 days
Procedure: as §2

UT-SCC-24B [8] = test: as above; settings: treatment time: 3 days
Procedure: as §2

UT-SCC-42B = test: as above; settings: treatment time: 3 days
Procedure: as §2

UT-SCC-106A [9] = test: as above; settings: treatment time: 3 days
Procedure: as §2

UT-SCC-81 = test: as above; settings: treatment time: 3 days
Procedure: as §2

UT-SCC-44 [10] = test: as above; settings: treatment time: 3 days
Procedure: as §2

UT-SCC-24A = test: drug sensitivity score (DSS); higher = more sensitive; settings: treatment time: 3 days
Procedure: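 HNSCC cell lines (500 cells/well, 384-well) were cultured on plastic, on top of (2D) or embedded (3D) in Matrigel or human leiomyoma matrix Myogel (500 ug/mL; Myogel 3D mixed with rat collagen I). Cells were treated for 3 days with 5 ten-fold concentrations of each drug, and viability was read by CellTiter-Glo. Suffixes _1/_2/_3 on drug names are replicates.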

[11] = culture condition: on top of Myogel
[12] = culture condition: plastic 2D (no matrix)
[13] = culture condition: embedded in Myogel + collagen I
[14] = culture condition: on top of Matrigel
[15] = culture condition: embedded in Matrigel

relative IC50 (UT-SCC-73 [1]): 272 nM | relative IC50 (UT-SCC-14 [2]; [11]): 543 nM | relative IC50 (UT-SCC-14 [2]; [12]): 741 nM | relative IC50 (UT-SCC-24B [3]; [13]): 163 nM | relative IC50 (UT-SCC-24B [3]; [14]): 363 nM | relative IC50 (UT-SCC-24B [3]; [11]): 562 nM | relative IC50 (UT-SCC-24B [3]; [12]): 337 nM | relative IC50 (UT-SCC-106A [4]; [15]): 98.9 nM | relative IC50 (UT-SCC-106A [4]; [12]): 193 nM | relative IC50 (UT-SCC-44 [5]; [15]): 78.9 nM | relative IC50 (UT-SCC-44 [5]; [11]): 805 nM
Compound: COc1ccc(-c2cc3c(C)nc(N)nc3n([C@H]3CC[C@H](OCCO)CC3)c2=O)cn1
maximal % inhibition of viability (UT-SCC-73 [6]; [15]): 87.9 ± 5% | maximal % inhibition of viability (UT-SCC-73 [6]; [13]): 79.9 ± 16% | maximal % inhibition of viability (UT-SCC-73 [6]; [14]): 82.7 ± 12% | maximal % inhibition of viability (UT-SCC-73 [6]; [11]): 80 ± 14% | maximal % inhibition of viability (UT-SCC-73 [6]; [12]): 85.4 ± 6.6% | maximal % inhibition of viability (UT-SCC-40; [15]): 88.6 ± 7.3% | maximal % inhibition of viability (UT-SCC-40; [13]): 74 ± 12% | maximal % inhibition of viability (UT-SCC-40; [14]): 85.1 ± 7.9% | maximal % inhibition of viability (UT-SCC-40; [11]): 64.1 ± 17% | maximal % inhibition of viability (UT-SCC-40; [12]): 68 ± 15% | maximal % inhibition of viability (UT-SCC-8; [15]): 91.8 ± 9% | maximal % inhibition of viability (UT-SCC-8; [13]): 71.3 ± 21% | maximal % inhibition of viability (UT-SCC-8; [14]): 82.1 ± 19% | maximal % inhibition of viability (UT-SCC-8; [11]): 78.7 ± 14% | maximal % inhibition of viability (UT-SCC-8; [12]): 84 ± 14% | maximal % inhibition of viability (UT-SCC-28; [15]): 63.3 ± 13% | maximal % inhibition of viability (UT-SCC-28; [13]): 65.3 ± 16% | maximal % inhibition of viability (UT-SCC-28; [14]): 66 ± 3.7% | maximal % inhibition of viability (UT-SCC-28; [12]): 56.8 ± 3.1% | maximal % inhibition of viability (UT-SCC-42A; [15]): 71.4 ± 9.7% | maximal % inhibition of viability (UT-SCC-42A; [13]): 62.5 ± 12% | maximal % inhibition of viability (UT-SCC-42A; [14]): 72.1 ± 7.3% | maximal % inhibition of viability (UT-SCC-42A; [11]): 63.3 ± 12% | maximal % inhibition of viability (UT-SCC-42A; [12]): 72.5 ± 6.5% | maximal % inhibition of viability (UT-SCC-14 [7]; [15]): 80.5 ± 3.8% | maximal % inhibition of viability (UT-SCC-14 [7]; [13]): 67.7 ± 5.3% | maximal % inhibition of viability (UT-SCC-14 [7]; [14]): 77.3 ± 1.4% | maximal % inhibition of viability (UT-SCC-14 [7]; [11]): 67.5 ± 3.8% | maximal % inhibition of viability (UT-SCC-14 [7]; [12]): 72.7 ± 3.6% | maximal % inhibition of viability (UT-SCC-24B [8]; [15]): 99.6 ± 0.2% | maximal % inhibition of viability (UT-SCC-24B [8]; [13]): 98.7 ± 0.36% | maximal % inhibition of viability (UT-SCC-24B [8]; [14]): 99.57 ± 0.67% | maximal % inhibition of viability (UT-SCC-24B [8]; [11]): 99 ± 1% | maximal % inhibition of viability (UT-SCC-24B [8]; [12]): 99.73 ± 0.46% | maximal % inhibition of viability (UT-SCC-42B; [15]): 63.8 ± 11% | maximal % inhibition of viability (UT-SCC-42B; [14]): 31.5 ± 7% | maximal % inhibition of viability (UT-SCC-42B; [11]): 18.5 ± 13% | maximal % inhibition of viability (UT-SCC-42B; [12]): 21.6 ± 12% | maximal % inhibition of viability (UT-SCC-106A [9]; [15]): 72.2 ± 2.7% | maximal % inhibition of viability (UT-SCC-106A [9]; [13]): 58.5 ± 8.7% | maximal % inhibition of viability (UT-SCC-106A [9]; [14]): 75.6 ± 2.8% | maximal % inhibition of viability (UT-SCC-106A [9]; [11]): 61.7 ± 13% | maximal % inhibition of viability (UT-SCC-106A [9]; [12]): 76.8 ± 4.8% | maximal % inhibition of viability (UT-SCC-81; [15]): 94 ± 4.5% | maximal % inhibition of viability (UT-SCC-81; [13]): 77.7 ± 13% | maximal % inhibition of viability (UT-SCC-81; [14]): 89.7 ± 4.7% | maximal % inhibition of viability (UT-SCC-81; [11]): 79.7 ± 8.8% | maximal % inhibition of viability (UT-SCC-81; [12]): 81.7 ± 7.7% | maximal % inhibition of viability (UT-SCC-44 [10]; [15]): 45.9 ± 6.3% | maximal % inhibition of viability (UT-SCC-44 [10]; [13]): 40.2 ± 19% | maximal % inhibition of viability (UT-SCC-44 [10]; [14]): 44.7 ± 10% | maximal % inhibition of viability (UT-SCC-44 [10]; [11]): 43 ± 11% | maximal % inhibition of viability (UT-SCC-44 [10]; [12]): 43.2 ± 15% | drug sensitivity score (UT-SCC-24A; [15]): 17 ± 7.7 DSS | drug sensitivity score (UT-SCC-24A; [13]): 9.63 ± 6.9 DSS | drug sensitivity score (UT-SCC-24A; [14]): 11.9 ± 4.7 DSS | drug sensitivity score (UT-SCC-24A; [11]): 5.83 ± 2.9 DSS | drug sensitivity score (UT-SCC-24A; [12]): 11.4 ± 7.7 DSS
